Assay results: patent US8623859B2, “Bradykinin B1 antagonists” (Evotec AG, priority 2008, dated 2014)
Structures can show the parent of a compound that is named as a salt.

Target: T1, human B1 (Homo sapiens, UniProt P46663)
T1 construct: host or cells: CHO-K1
T1 sequence (P46663 1-353): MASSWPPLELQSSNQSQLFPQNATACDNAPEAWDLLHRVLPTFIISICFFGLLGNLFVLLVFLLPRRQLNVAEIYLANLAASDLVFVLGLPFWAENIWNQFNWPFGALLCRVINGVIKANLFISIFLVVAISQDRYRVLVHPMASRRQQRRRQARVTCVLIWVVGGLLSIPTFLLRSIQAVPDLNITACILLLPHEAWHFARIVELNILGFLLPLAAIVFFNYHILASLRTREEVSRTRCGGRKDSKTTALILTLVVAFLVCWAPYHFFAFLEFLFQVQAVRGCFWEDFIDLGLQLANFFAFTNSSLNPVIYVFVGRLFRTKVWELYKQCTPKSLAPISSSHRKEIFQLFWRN
Test: Calcium flux assay for Bradykinin B1 antagonist, CHO-K1 cell line expressing human B1
Format: cell-based
Settings: CHO-K1 cells expressing human B1, agonist Lys-(Des-Arg)-Bradykinin, read-out: Potency (IC50 value against human B1)
How it was run: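 Inhibition of B1 agonist-evoked intracellular Ca2+ rise was followed by continuous fluorescence at 538 nm, with integrated, background-normalized signals plotted versus log compound concentration. Test compounds (eight 10-fold dilutions, triplicate, 1% DMSO final) were added 30 min at 25° C beforehand to Fluo-4AM-loaded human B1 CHO-K1 cells in pH 7.4 assay buffer.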

Row | SMILES | IC50
1 | COc1cc(C)c(S(=O)(=O)N(C)Cc2nnc(C(=O)N(C)Cc3ccc(CN4CC(OC)C4)cc3)o2)c(C)c1 [Ex 287, N-{4-[(3-Methoxyazetidin-1-yl)methyl]benzyl}-5-({[(4-methoxy-2,6-dimethylphenyl)sulfonyl](methyl)amino}methyl)-N-methyl-1,3,4-oxadiazole-2-carboxamide] | 100 to 1000 nM
2 | COc1cc(C)c(S(=O)(=O)N(Cc2nc(C(=O)N(C)Cc3ccc(CN4CCC(C)(O)C4)cc3)co2)C2CC2)c(C)c1 (stereo not shown) [Ex 198, 2-({Cyclopropyl[(4-methoxy-2,6-dimethylphenyl)sulfonyl]amino}methyl)-N-{4-[(3-hydroxy-3-methylpyrrolidin-1-yl)methyl]benzyl}-N-methyl-1,3-oxazole-4-carboxamide] | < 10 nM
3 | COc1cc(C)c(S(=O)(=O)N(Cc2cc(C(=O)N(C)Cc3ccc(CN4CC(O)C4)cc3)co2)C2CC2)c(C)c1 [Ex 148, 5-({Cyclopropyl[(4-methoxy-2,6-dimethylphenyl)sulfonyl]amino}methyl)-N-{4-[(3-hydroxyazetidin-1-yl)methyl]benzyl}-N-methylfuran-3-carboxamide] | 10 to 100 nM
4 | COc1cc(C)c(S(=O)(=O)N(C)Cc2nnc(C(=O)N3CCN(Cc4ccnc(C)c4)CC3)o2)c(C)c1 [Ex 294, 4-Methoxy-N,2,6-trimethyl-N-{[5-({4-[(2-methylpyridin-4-yl)methyl]piperazin-1-yl}carbonyl)-1,3,4-oxadiazol-2-yl]methyl}benzenesulfonamide] | 10 to 100 nM
5 | COc1cc(C)c(S(=O)(=O)N(C)Cc2noc(C(=O)N3CCN(CCCN4CCCC4)CC3)n2)c(C)c1 [Ex 304, 4-Methoxy-N,2,6-trimethyl-N-[(5-{[4-(3-pyrrolidin-1-ylpropyl)piperazin-1-yl]carbonyl}-1,2,4-oxadiazol-3-yl)methyl]benzenesulfonamide trifluoroacetamide] | 100 to 1000 nM
6 | COc1cc(C)c(S(=O)(=O)N(Cc2noc(C(=O)N3CCN(CCCN4CCCC4)CC3)n2)C2CC2)c(C)c1 [Ex 317, N-Cyclopropyl-4-methoxy-2,6-dimethyl-N-[(5-{[4-(3-pyrrolidin-1-ylpropyl)piperazin-1-yl]carbonyl}-1,2,4-oxadiazol-3-yl)methyl]benzenesulfonamide] | < 10 nM
7 | COc1cc(C)c(S(=O)(=O)N(C)Cc2nnc(C(=O)NCCc3ccc(C4=NCCN4)cc3)s2)c(C)c1 [Ex 330, N-{2-[4-(4,5-Dihydro-1H-imidazol-2-yl)phenyl]ethyl}-5-({[(4-methoxy-2,6-dimethylphenyl)sulfonyl](methyl)amino}methyl)-1,3,4-thiadiazole-2-carboxamide trifluoroacetamide] | < 10 nM
8 | CN(Cc1ccc(C2=NCCN2)cc1)C(=O)c1coc(CN(C2CC2)S(=O)(=O)c2c(Cl)cc(Br)cc2Cl)c1 [Ex 123, 5-({[(4-Bromo-2,6-dichlorophenyl)sulfonyl](cyclopropyl)amino}methyl)-N-[4-(4,5-dihydro-1H-imidazol-2-yl)benzyl]-N-methylfuran-3-carboxamide trifluoroacetate] | < 10 nM
9 | CN(Cc1ccc(C2=NCCN2)cc1)C(=O)c1coc(CN(C)S(=O)(=O)c2c(Cl)cc(Br)cc2Cl)c1 [Ex 19, 5-({[(4-bromo-2,6-dichlorophenyl)sulfonyl](methyl)amino}methyl)-N-[4-(4,5-dihydro-1H-imidazol-2-yl)benzyl]-N-methylfuran-3-carboxamide] | < 10 nM
10 | COc1cc(C)c(S(=O)(=O)N(C)Cc2nnc(C(=O)N(C)CCc3ccc(C4=NCCN4)cc3)o2)c(C)c1 [Ex 267, N-{2-[4-(4,5-Dihydro-1H-imidazol-2-yl)phenyl]ethyl}-5-({[(4-methoxy-2,6-dimethylphenyl)sulfonyl](methyl)amino}methyl)-N-methyl-1,3,4-oxadiazole-2-carboxamide] | < 10 nM
11 | COc1cc(C)c(S(=O)(=O)N(C)Cc2cc(C(=O)NC(C)c3ccc(CN4CCCC4)cc3)co2)c(C)c1 (stereo not shown) [Ex 90, 5-({[(4-Methoxy-2,6-dimethylphenyl)sulfonyl](methyl)amino}methyl)-N-{1-[4-(pyrrolidin-1-ylmethyl)phenyl]ethyl}furan-3-carboxamide] | 100 to 1000 nM
12 | COc1cc(C)c(S(=O)(=O)N(Cc2nnc(C(=O)N3CCN(CCCN4CCCC4)CC3)o2)C2CC2)c(C)c1 [Ex 273, N-Cyclopropyl-4-methoxy-2,6-dimethyl-N-[(5-{[4-(3-pyrrolidin-1-ylpropyl)piperazin-1-yl]carbonyl}-1,3,4-oxadiazol-2-yl)methyl]benzenesulfonamide] | < 10 nM
13 | COc1cc(C)c(S(=O)(=O)N(Cc2cc(C(=O)N(C)Cc3ccc(CN4CC(OC)C4)cc3)co2)C2CC2)c(C)c1 [Ex 149, 5-({Cyclopropyl[(4-methoxy-2,6-dimethylphenyl)sulfonyl]amino}methyl)-N-{4-[(3-methoxyazetidin-1-yl)methyl]benzyl}-N-methylfuran-3-carboxamide] | 100 to 1000 nM
14 | COc1cc(C)c(S(=O)(=O)N(Cc2noc(C(=O)N3CCN(CCN4CCCC4)CC3)n2)C2CC2)c(C)c1 [Ex 318, N-Cyclopropyl-4-methoxy-2,6-dimethyl-N-[(5-{[4-(2-pyrrolidin-1-ylethyl)piperazin-1-yl]carbonyl}-1,2,4-oxadiazol-3-yl)methyl]benzenesulfonamide] | 10 to 100 nM
15 | COc1cc(C)c(S(=O)(=O)N(Cc2cc(C(=O)N3CCN(CCN4CCCC4)CC3)co2)C2CC2)c(C)c1 [Ex 112, N-Cyclopropyl-4-methoxy-2,6-dimethyl-N-[(4-{[4-(2-pyrrolidin-1-ylethyl)piperazin-1-yl]carbonyl}furan-2-yl)methyl]benzenesulfonamide trifluoroacetate] | 10 to 100 nM
16 | COc1cc(C)c(S(=O)(=O)N(Cc2nc(C(=O)N(C)C3CCCC(N4CCN(C)CC4)C3)co2)C2CC2)c(C)c1 (stereo not shown) [Ex 244, 2-({Cyclopropyl[(4-methoxy-2,6-dimethylphenyl)sulfonyl]amino}methyl)-N-methyl-N-[3-(4-methylpiperazin-1-yl)cyclohexyl]-1,3-oxazole-4-carboxamide] | < 10 nM
17 | Cc1cc(S(=O)(=O)N(C)Cc2cc(C(=O)N(C)Cc3ccc(C4=NCCN4)cc3)co2)c(C)cc1Cl [Ex 20, 5-({[(4-chloro-2,5-dimethylphenyl)sulfonyl](methyl)amino}methyl)-N-[4-(4,5-dihydro-1H-imidazol-2-yl)benzyl]-N-methylfuran-3-carboxamide] | < 10 nM
18 | COc1cc(C)c(S(=O)(=O)N(Cc2nc(C(=O)N3CCN(Cc4ccnc(N5CCCC5)c4)CC3)co2)C2CC2)c(C)c1 [Ex 256, N-Cyclopropyl-4-methoxy-2,6-dimethyl-N-{[4-({4-[(2-pyrrolidin-1-ylpyridin-4-yl)methyl]piperazin-1-yl}carbonyl)-1,3-oxazol-2-yl]methyl}benzenesulfonamide] | 100 to 1000 nM
19 | COc1cc(C)c(S(=O)(=O)N(Cc2nnc(C(=O)N3CCC(CCN4CCCC4)CC3)o2)C2CC2)c(C)c1 [Ex 274, N-Cyclopropyl-4-methoxy-2,6-dimethyl-N-[(5-{[4-(2-pyrrolidin-1-ylethyl)piperidin-1-yl]carbonyl}-1,3,4-oxadiazol-2-yl)methyl]benzenesulfonamide] | < 10 nM
20 | COc1cc(C)c(S(=O)(=O)N(C)Cc2nnc(C(=O)N(C)Cc3ccc(CN4CCCC4)cc3)o2)c(C)c1 [Ex 268, 5-({[(4-Methoxy-2,6-dimethylphenyl)sulfonyl](methyl)amino}methyl)-N-methyl-N-[4-(pyrrolidin-1-ylmethyl)benzyl]-1,3,4-oxadiazole-2-carboxamide trifluoroacetate] | 10 to 100 nM
21 | COc1cc(C)c(S(=O)(=O)N(C)Cc2nc(C(=O)N(C)Cc3ccc(CN4CCCC(O)C4)cc3)co2)c(C)c1 (stereo not shown) [Ex 179, N-{4-[(3-Hydroxypiperidin-1-yl)methyl]benzyl}-2-({[(4-methoxy-2,6-dimethylphenyl)sulfonyl](methyl)amino}methyl)-N-methyl-1,3-oxazole-4-carboxamide] | < 10 nM
22 | COc1cc(C)c(S(=O)(=O)N(Cc2nc(C(=O)N3CCN(CCN4CCCC4)CC3)co2)C2CC2)c(C)c1 [Ex 195, N-Cyclopropyl-4-methoxy-2,6-dimethyl-N-[(4-{[4-(2-pyrrolidin-1-ylethyl)piperazin-1-yl]carbonyl}-1,3-oxazol-2-yl)methyl]benzenesulfonamide trifluoroacetate] | < 10 nM
23 | COc1cc(C)c(S(=O)(=O)N(C)Cc2nnc(C(=O)N(C)Cc3cccc(CN4CCCC4)c3)s2)c(C)c1 [Ex 331, 5-({[(4-Methoxy-2,6-dimethylphenyl)sulfonyl](methyl)amino}methyl)-N-methyl-N-[3-(pyrrolidin-1-ylmethyl)benzyl]-1,3,4-thiadiazole-2-carboxamide trifluoroacetate] | 10 to 100 nM
24 | COc1cc(C)c(S(=O)(=O)N(C)Cc2nc(C(=O)N3CCN(CC4CCN(C)CC4)CC3)co2)c(C)c1 [Ex 175, 4-Methoxy-N,2,6-trimethyl-N-{[4-({4-[(1-methylpiperidin-4-yl)methyl]piperazin-1-yl}carbonyl)-1,3-oxazol-2-yl]methyl}benzenesulfonamide] | < 10 nM
25 | COc1cc(C)c(S(=O)(=O)N(C)Cc2cc(C(=O)N(C)CCc3ccc(C4=NCCN4)cc3)c(C)o2)c(C)c1 [Ex 59, N-{2-[4-(4,5-dihydro-1H-imidazol-2-yl)phenyl]ethyl}-5-({[(4-methoxy-2,6-dimethylphenyl)sulfonyl](methyl)amino}methyl)-N,2-dimethylfuran-3-carboxamide] | 100 to 1000 nM
